Experimental data: patent publication US7906545B2, “Prodrugs of CC-1065 analogs” (priority 2002, dated 2011)

Key:
[1] = cited from earlier work
[2] = vs doxorubicin, methotrexate and vincristine; cited from earlier work
mice = conditions: single intravenous dose of 12.5 μg/kg; cited from earlier work
[3] = phenyl carbamate prodrug of adozelesin; cited from earlier work
[4] = stability in aqueous solutions; type: physicochemical
carboxyl esterase = test: conversion of carbamate prodrug into parent drug by incubation in serum, plasma or with carboxyl esterase; type: in vitro ADME; conditions: plasma or with an enzyme such as carboxyl esterase
Description: Thus, piperazino carbamate and 4-piperidino-piperidino carbamate protecting groups are enzyme-cleavable by enzymes such as carboxyl esterase, which occurs in serum and plasma. Phosphate protecting groups are cleavable by phosphatase enzymes such as alkaline phosphatase.

[5] = as compared with DC1
alkaline phosphatase = conditions: incubation with alkaline phosphatase
Protocol: Cells to be evaluated can be exposed to the compounds for 24 hours and the surviving fractions of cells measured in direct assays by known methods.

[6] = tested on: endogenous alkaline phosphatase; conditions: presumably hydrolysis by endogenous alkaline phosphatase; cited from earlier work

Cc1c[nH]c2c1[C@@]13C[C@@H]1CN(C(=O)c1cc4cc(NC(=O)c5cc6ccccc6o5)ccc4[nH]1)C3=CC2=O [Adozelesin]
systemic toxicity in clinical evaluation [1]: high systemic toxicity | therapeutic effects in clinical evaluation [1]: poor therapeutic effects

COc1c(O)c2c(c3cc(C(=O)N4CCc5c4c(O)c(OC)c4[nH]c(C(=O)N6CC7CC78C6=CC(=O)c6[nH]cc(C)c68)cc54)[nH]c13)CCN2C(N)=O (centres unmarked) [CC-1065]
potency in vitro relative to commonly used anti-cancer drugs [2]: about 1000 fold | delayed toxicity in mice (mice): delayed hepatotoxicity leading to mortality on day 50

CCN(CC)c1ccc2cc(C(=O)Nc3ccc4[nH]c(C(=O)N5C[C@@H](CCl)c6c5cc(OC(=O)Nc5ccccc5)c5[nH]cc(C)c65)cc4c3)oc2c1 [Carzelesin]
lability of prodrug [3]: too labile for therapeutic use | systemic toxicity in clinical evaluation [1]: high systemic toxicity | therapeutic effects in clinical evaluation [1]: poor therapeutic effects

CN1CCN(C(=O)Oc2cc3c(c4ccccc24)[C@H](CCl)CN3C(=O)c2cc3cc(NC(=O)c4cc5cc(NC(=O)CCS)ccc5[nH]4)ccc3[nH]2)CC1 [DC2]
stability in aqueous solutions [4]: extremely stable | conversion into the parent drug DC1 (carboxyl esterase): can be converted into the parent drug DC1 | water solubility [5]: enhanced water solubility

O=C(CCS)Nc1ccc2[nH]c(C(=O)Nc3ccc4[nH]c(C(=O)N5C[C@@H](CCl)c6c5cc(OC(=O)N5CCC(N7CCCCC7)CC5)c5ccccc65)cc4c3)cc2c1 [DC3]
stability in aqueous solutions [4]: extremely stable | conversion into the parent drug DC1 (carboxyl esterase): can be converted into the parent drug DC1 | water solubility [5]: enhanced water solubility

O=C(CCS)Nc1ccc2[nH]c(C(=O)Nc3ccc4[nH]c(C(=O)N5C[C@@H](CCl)c6c5cc(OP(=O)(O)O)c5ccccc65)cc4c3)cc2c1 [DC4]
stability in aqueous solutions [4]: extremely stable | conversion into the parent drug DC1 (alkaline phosphatase): converts it into the parent drug DC1 | water solubility [5]: soluble

COc1cc([C@@H]2c3cc4c(cc3[C@@H](O[C@@H]3O[C@@H]5CO[C@@H](C)O[C@H]5[C@H](O)[C@H]3O)[C@H]3COC(=O)[C@H]23)OCO4)cc(OC)c1OP(=O)(O)O [etoposide phosphate]
conversion in vivo into active drug [6]: rapidly converted into active drug
